# According to paper PMC6318274, “Lattice engineering enables definition of molecular features allowing for potent small-molecule inhibition of HIV-1 entry” (Nature Communications, 2019):
# Where “and” joins values, the source holds several entries; their conditions need not be identical. Equal entries are not always repeated. Where two headings read alike, the source gives them in different places.
# Legend:
# SIVmac251.30.SG3 [1] = tested on: SIVmac251.30.SG3; set-up: method as in earlier work; details: SIVmac251.30.SG3, clade NA; cited from earlier work
# HIV-1 strain NL4-3 [2] = details: cited from earlier work
# [3] = tested on: HIV-1 Env-pseudoviruses (30-strain panel); assay: Neutralization assay, cross-clade 30-strain panel (Env-pseudoviruses, TZM-bl target cells); type: cell-based
# Description: Neutralization was measured using single-round-of-infection HIV-1 Env-pseudoviruses and TZM-bl target cells (ARP Cat No. #8129)[44],[45]. Compounds were prepared at 400 μM with 4% DMSO (dimethyl sulfoxide) in PBS (phosphate-buffered saline) and diluted 20 times as the starting concentration for serial dilution in the neutralization assays. […] After incubation at 37 °C for 2 days, infection of target cells was measured by luciferase activity. Neutralization curves were fit by nonlinear regression using a five-parameter hill slope equation[45].
# [4] = target: BG505 DS-SOSIP.664 Env trimer (Human immunodeficiency virus 1, UniProt Q2N0S5, A430C/A498C/I200C/I556P/T330N/T602C, form not given); type: binding, HIV-1; details: ITC, 37 °C
# SVA.MLV = tested on: SVA.MLV; set-up: method as in earlier work; details: clade NA; cited from earlier work
# HIV-1 strain NL4-3 [5] = assay: Entry inhibition of laboratory-adapted HIV-1 strain NL4-3; type: cell-based; details: Human immunodeficiency virus 1, NL43; NL4-3
# SIVmac251.30.SG3 [6] = assay: Neutralization assay, control virus SIVmac251.30.SG3; type: cell-based, SIV; details: Simian immunodeficiency virus; SIVmac251.30.SG3, clade NA
# Description: Neutralization was measured using single-round-of-infection HIV-1 Env-pseudoviruses and TZM-bl target cells (ARP Cat No. #8129)[44],[45]. Compounds were prepared at 400 μM with 4% DMSO (dimethyl sulfoxide) in PBS (phosphate-buffered saline) and diluted 20 times as the starting concentration for serial dilution in the neutralization assays. Pseudoviruses of ten strains from HIV-1 clades A, B, and C were incubated with serial dilutions of drug compounds, then added to TZM-bl target cells which have a luciferase reporter gene. After incubation at 37 °C for 2 days, infection of target cells was measured by luciferase activity. Neutralization curves were fit by nonlinear regression using a five-parameter hill slope equation[45].
# [7] = Human immunodeficiency virus 1, TZM-bl, 242-14 (Clade AG), read-out: IC50
# [8] = Human immunodeficiency virus 1, TZM-bl, 247-23 (Clade D), read-out: IC50
# [9] = Human immunodeficiency virus 1, TZM-bl, 0330.v4.c3 (Clade A), read-out: IC50
# [10] = Human immunodeficiency virus 1, TZM-bl, 426c (Clade C), read-out: IC50
# [11] = Human immunodeficiency virus 1, TZM-bl, 7165.18 (Clade B), read-out: IC50
# [12] = Human immunodeficiency virus 1, TZM-bl, B41 (Clade B), read-out: IC50
# [13] = Human immunodeficiency virus 1, TZM-bl, BJOX028000.10.3 (Clade AE), read-out: IC50
# [14] = Human immunodeficiency virus 1, TZM-bl, BL01.DG (Clade B), read-out: IC50
# [15] = Human immunodeficiency virus 1, TZM-bl, C4118.09 (Clade AE), read-out: IC50
# [16] = Human immunodeficiency virus 1, TZM-bl, CAP210.E8 (Clade C), read-out: IC50
# [17] = Human immunodeficiency virus 1, TZM-bl, CH119.10 (Clade BC), read-out: IC50
# [18] = Human immunodeficiency virus 1, TZM-bl, CNE10 (Clade B), read-out: IC50
# [19] = Human immunodeficiency virus 1, TZM-bl, CNE20 (Clade BC), read-out: IC50
# [20] = Human immunodeficiency virus 1, TZM-bl, CNE56 (Clade AE), read-out: IC50
# [21] = Human immunodeficiency virus 1, TZM-bl, DJ263.8 (Clade AG), read-out: IC50
# [22] = Human immunodeficiency virus 1, TZM-bl, DU156.12 (Clade C), read-out: IC50
# [23] = Human immunodeficiency virus 1, TZM-bl, Geomean, 30-strain panel, read-out: Geometric mean IC50
# [24] = Human immunodeficiency virus 1, TZM-bl, KER2008.12 (Clade A), read-out: IC50
# [25] = Human immunodeficiency virus 1, TZM-bl, MB201.A1 (Clade A), read-out: IC50
# [26] = Human immunodeficiency virus 1, TZM-bl, NKU3006.ec1 (Clade D), read-out: IC50
# [27] = Human immunodeficiency virus 1, TZM-bl, P0402.c2.11 (Clade G), read-out: IC50
# [28] = Human immunodeficiency virus 1, TZM-bl, PVO.04 (Clade B), read-out: IC50
# [29] = Human immunodeficiency virus 1, TZM-bl, R3265.c6 (Clade AE), read-out: IC50
# [30] = Human immunodeficiency virus 1, TZM-bl, REJO.67 (Clade B), read-out: IC50
# [31] = Human immunodeficiency virus 1, TZM-bl, T253-11 (Clade AG), read-out: IC50
# [32] = Human immunodeficiency virus 1, TZM-bl, T280-5 (Clade AG), read-out: IC50
# [33] = Human immunodeficiency virus 1, TZM-bl, ZM106.9 (Clade C), read-out: IC50
structure (smiles),measurement,setting,value
COc1cnc(-n2cnc(C)n2)c2[nH]cc(C(=O)C(=O)N3CCN(C(=O)c4ccccc4)CC3)c12 [BMS-626529],IC50,SIVmac251.30.SG3 [1],> 20000 nM
same,EC50,HIV-1 strain NL4-3 [2],2.2 ± 0.6 nM
same,IC50,"[3]; Geomean, 30-strain panel, read-out: Geometric mean IC50",~40 nM
same,IC50,[3]; [7],24 nM
same,IC50,[3]; [8],9 nM
same,IC50,[3]; [9],185 nM
same,IC50,[3]; [10],5 nM
same,IC50,[3]; [11],20 nM
same,IC50,[3]; [12],0.7 nM
same,IC50,[3]; [13],> 20000 nM
same,IC50,[3]; [14],12400 nM
same,IC50,[3]; [15],6210 nM
same,IC50,[3]; [16],66 nM
same,IC50,[3]; [17],5 nM
same,IC50,[3]; [18],2 nM
same,IC50,[3]; [19],878 nM
same,IC50,[3]; [20],> 20000 nM
same,IC50,[3]; [21],12 nM
same,IC50,[3]; [22],2 nM
same,IC50,[3]; [23],> 40 nM
same,IC50,[3]; [24],758 nM
same,IC50,[3]; [25],474 nM
same,IC50,[3]; [26],2 nM
same,IC50,[3]; [27],17 nM
same,IC50,[3]; [28],0.9 nM
same,IC50,[3]; [29],5840 nM
same,IC50,[3]; [30],205 nM
same,IC50,[3]; [31],0.5 nM
same,IC50,[3]; [32],3 nM
same,IC50,[3]; [33],16 nM
same,IC50,"[3]; Human immunodeficiency virus 1, TZM-bl, read-out: IC50",5 nM
same,-TΔS,[4],+7.7 kcal/mol
same,ΔG,[4],-9.1 kcal/mol
same,ΔH,[4],-16.8 kcal/mol
same,IC50,SVA.MLV,> 20000 nM
COc1cnc(-c2csc(C(=O)NCCO)n2)c2[nH]cc(C(=O)C(=O)N3CCC(=C(C#N)c4ccccc4)CC3)c12 [BMS-818251],EC50,HIV-1 strain NL4-3 [5],0.019 ± 0.003 nM
same,IC50,SIVmac251.30.SG3 [6],> 20000 nM
same,IC50,"[3]; Human immunodeficiency virus 1, TZM-bl",< 0.3 nM and < 0.0002 µg/mL
same,IC50,[3]; [7],< 0.3 nM
same,IC50,"[3]; Human immunodeficiency virus 1, TZM-bl, 242-14.SG3 (Clade AG), read-out: IC50",< 0.2 ng/mL
same,IC50,[3]; [8],< 0.3 nM
same,IC50,"[3]; Human immunodeficiency virus 1, TZM-bl, 247-23.SG3 (Clade D), read-out: IC50",< 0.2 ng/mL
same,IC50,[3]; [9],4 nM
same,IC50,"[3]; Human immunodeficiency virus 1, TZM-bl, 0330.v4.c3.SG3 (Clade A), read-out: IC50",2.3 ng/mL
same,IC50,[3]; [10],0.4 nM
same,IC50,"[3]; Human immunodeficiency virus 1, TZM-bl, 426c.SG3 (Clade C), read-out: IC50",< 0.2 ng/mL
same,IC50,[3]; [11],13 nM
same,IC50,"[3]; Human immunodeficiency virus 1, TZM-bl, 7165.18.SG3 (Clade B), read-out: IC50",7.4 ng/mL
same,IC50,"[3]; Human immunodeficiency virus 1, TZM-bl, A03349M1.vrc4a.SG3 (Clade D), read-out: IC50",< 0.2 ng/mL
same,IC50,[3]; [12],< 0.3 nM
same,IC50,"[3]; Human immunodeficiency virus 1, TZM-bl, B41.SG3 (Clade B), read-out: IC50",< 0.2 ng/mL
same,IC50,[3]; [13],733 nM
same,IC50,"[3]; Human immunodeficiency virus 1, TZM-bl, BJOX028000.10.3.SG3 (Clade AE), read-out: IC50",418 ng/mL
same,IC50,[3]; [14],533 nM
same,IC50,"[3]; Human immunodeficiency virus 1, TZM-bl, BL01.DG.SG3 (Clade B), read-out: IC50",304 ng/mL
same,IC50,[3]; [15],89 nM
same,IC50,"[3]; Human immunodeficiency virus 1, TZM-bl, C4118.09.SG3 (Clade AE), read-out: IC50",50.7 ng/mL
same,IC50,[3]; [16],22 nM
same,IC50,"[3]; Human immunodeficiency virus 1, TZM-bl, CAP210.E8.SG3 (Clade C), read-out: IC50",12.5 ng/mL
same,IC50,[3]; [17],< 0.3 nM
same,IC50,"[3]; Human immunodeficiency virus 1, TZM-bl, CH119.10.SG3 (Clade BC), read-out: IC50",< 0.2 ng/mL
same,IC50,[3]; [18],< 0.3 nM
same,IC50,"[3]; Human immunodeficiency virus 1, TZM-bl, CNE10.SG3 (Clade B), read-out: IC50",< 0.2 ng/mL
same,IC50,[3]; [19],6 nM
same,IC50,"[3]; Human immunodeficiency virus 1, TZM-bl, CNE20.SG3 (Clade BC), read-out: IC50",3.4 ng/mL
same,IC50,[3]; [20],471 nM
same,IC50,"[3]; Human immunodeficiency virus 1, TZM-bl, CNE56.SG3 (Clade AE), read-out: IC50",268 ng/mL
same,IC50,[3]; [21],< 0.3 nM
same,IC50,"[3]; Human immunodeficiency virus 1, TZM-bl, DJ263.8.SG3 (Clade AG), read-out: IC50",< 0.2 ng/mL
same,IC50,[3]; [22],< 0.3 nM
same,IC50,"[3]; Human immunodeficiency virus 1, TZM-bl, DU156.12.SG3 (Clade C), read-out: IC50",< 0.2 ng/mL
same,IC50,[3]; [23],~2 nM
same,IC50,[3]; [24],11 nM
same,IC50,"[3]; Human immunodeficiency virus 1, TZM-bl, KER2008.12.SG3 (Clade A), read-out: IC50",6.3 ng/mL
same,IC50,[3]; [25],14 nM
same,IC50,"[3]; Human immunodeficiency virus 1, TZM-bl, MB201.A1.SG3 (Clade A), read-out: IC50",8 ng/mL
same,IC50,[3]; [26],< 0.3 nM
same,IC50,"[3]; Human immunodeficiency virus 1, TZM-bl, NKU3006.ec1.SG3 (Clade D), read-out: IC50",< 0.2 ng/mL
same,IC50,[3]; [27],< 0.3 nM
same,IC50,"[3]; Human immunodeficiency virus 1, TZM-bl, P0402.c2.11.SG3 (Clade G), read-out: IC50",< 0.2 ng/mL
same,IC50,[3]; [28],< 0.3 nM
same,IC50,"[3]; Human immunodeficiency virus 1, TZM-bl, PVO.04.SG3 (Clade B), read-out: IC50",< 0.2 ng/mL
same,IC50,[3]; [29],32 nM
same,IC50,"[3]; Human immunodeficiency virus 1, TZM-bl, R3265.c6.SG3 (Clade AE), read-out: IC50",18.2 ng/mL
same,IC50,[3]; [30],450 nM
same,IC50,"[3]; Human immunodeficiency virus 1, TZM-bl, REJO.67.SG3 (Clade B), read-out: IC50",256 ng/mL
same,IC50,[3]; [31],< 0.3 nM
same,IC50,"[3]; Human immunodeficiency virus 1, TZM-bl, T253-11.SG3 (Clade AG), read-out: IC50",< 0.2 ng/mL
same,IC50,[3]; [32],< 0.3 nM
same,IC50,"[3]; Human immunodeficiency virus 1, TZM-bl, T280-5.SG3 (Clade AG), read-out: IC50",< 0.2 ng/mL
same,IC50,[3]; [33],0.5 nM
same,IC50,"[3]; Human immunodeficiency virus 1, TZM-bl, ZM106.9.SG3 (Clade C), read-out: IC50",0.3 ng/mL
same,IC50,"[3]; Human immunodeficiency virus 1, TZM-bl, geomean, 30-strain panel, read-out: Geometric mean IC50",< 0.2 ng/mL
same,IC50,"[3]; Human immunodeficiency virus 1, TZM-bl, read-out: Geometric mean IC50",< 2 nM
same,-TΔS,[4],+4.5 kcal/mol
same,ΔG,[4],-10.4 kcal/mol
same,ΔH,[4],-14.9 kcal/mol
same,Kd,[4]; read-out: Kd (affinity),47 nM
